Paper PMC6917776, “Discovery of a chemical probe for PRDM9” (Nature Communications, 2019)
Where two headings read alike, the source gives them in different places.

Assay: CelltiterGlo viability cell assay
Type: cell-based
Conditions: human
How it was run: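 Mycoplasma-negative lines were plated at line-specific densities and treated with a compound titration (0.01–30 μM); CelltiterGlo signal at day 3 or 6 was referenced to DMSO control.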

[1] = HCC1143 breast cancer cells, HCC1143, 6 day, read-out: viability Replicate 3
[2] = HCC1143 breast cancer cells, HCC1143, 6 day, read-out: viability Average
[3] = HCC1143 breast cancer cells, HCC1143, 6 day, read-out: viability Replicate 1
[4] = HCC1143 breast cancer cells, HCC1143, 6 day, read-out: viability Replicate 2
[5] = HCC1806 breast cancer cells, HCC1806, 3 day, read-out: viability Average
[6] = HCC1806 breast cancer cells, HCC1806, 3 day, read-out: viability Replicate 1
[7] = HCC1806 breast cancer cells, HCC1806, 3 day, read-out: viability Replicate 2
[8] = HCC1806 breast cancer cells, HCC1806, 3 day, read-out: viability Replicate 3
[9] = HCC1806 breast cancer cells, HCC1806, 6 day, read-out: viability Average
[10] = HCC1806 breast cancer cells, HCC1806, 6 day, read-out: viability Replicate 1
[11] = HCC1806 breast cancer cells, HCC1806, 6 day, read-out: viability Replicate 2
[12] = HCC1806 breast cancer cells, HCC1806, 6 day, read-out: viability Replicate 3
[13] = HCC1806 cells, HCC1806, 3 day, read-out: viability Average
[14] = HCC1806 cells, HCC1806, 3 day, read-out: viability Replicate 1
[15] = HCC1806 cells, HCC1806, 3 day, read-out: viability Replicate 2
[16] = HCC1806 cells, HCC1806, 3 day, read-out: viability Replicate 3

Structure (SMILES): COc1cc(OC)cc(-c2noc(N3CCN(C)C4(CCN(c5ccnc(C)c5)CC4)C3)n2)c1 [MRK-740]
- viability at 6 day, 0.03 µM [1]: 104%
- viability at 6 day, 0.1 µM [2]: 105%
- viability at 6 day, 0.1 µM [3]: 103%
- viability at 6 day, 0.1 µM [4]: 102%
- viability at 6 day, 0.1 µM [1]: 111%
- viability at 6 day, 0.3 µM [2]: 110%
- viability at 6 day, 0.3 µM [3]: 109%
- viability at 6 day, 0.3 µM [4]: 111%
- viability at 6 day, 0.3 µM [1]: 111%
- viability at 6 day, 1 µM [2]: 112%
- viability at 6 day, 1 µM [3]: 114%
- viability at 6 day, 1 µM [4]: 108%
- viability at 6 day, 1 µM [1]: 113%
- viability at 6 day, 3 µM [2]: 108%
- viability at 6 day, 3 µM [3]: 106%
- viability at 6 day, 3 µM [4]: 109%
- viability at 6 day, 3 µM [1]: 110%
- viability at 6 day, 9.5 µM [2]: 79.4%
- viability at 6 day, 9.5 µM [3]: 79.5%
- viability at 6 day, 9.5 µM [4]: 78.6%
- viability at 6 day, 9.5 µM [1]: 80.2%
- viability at 6 day, 30 µM [2]: 18.9%
- viability at 6 day, 30 µM [3]: 20.9%
- viability at 6 day, 30 µM [4]: 18.4%
- viability at 6 day, 30 µM [1]: 17.3%
- viability at 3 day, 0.1 µM (HCC1143 cells, HCC1143, 3 day, read-out: viability Average): 93.6%
- viability at 3 day, 0.1 µM (HCC1143 cells, HCC1143, 3 day, read-out: viability Replicate 1): 95.6%
- viability at 3 day, 0.1 µM (HCC1143 cells, HCC1143, 3 day, read-out: viability Replicate 2): 90.7%
- viability at 3 day, 0.1 µM (HCC1143 cells, HCC1143, 3 day, read-out: viability Replicate 3): 94.6%
- viability at 3 day, 0.01 µM [5]: 107%
- viability at 3 day, 0.01 µM [6]: 103%
- viability at 3 day, 0.01 µM [7]: 110%
- viability at 3 day, 0.01 µM [8]: 107%
- viability at 3 day, 0.03 µM [5]: 102%
- viability at 3 day, 0.03 µM [6]: 99.9%
- viability at 3 day, 0.03 µM [7]: 101%
- viability at 3 day, 0.03 µM [8]: 104%
- viability at 3 day, 1 µM [5]: 103%
- viability at 3 day, 1 µM [6]: 104%
- viability at 3 day, 1 µM [7]: 111%
- viability at 3 day, 1 µM [8]: 94.5%
- viability at 3 day, 3 µM [5]: 89.8%
- viability at 3 day, 3 µM [6]: 92.2%
- viability at 3 day, 3 µM [7]: 107%
- viability at 3 day, 3 µM [8]: 70.5%
- viability at 3 day, 9.5 µM [5]: 37.6%
- viability at 3 day, 9.5 µM [6]: 40.7%
- viability at 3 day, 9.5 µM [7]: 51.7%
- viability at 3 day, 9.5 µM [8]: 20.5%
- viability at 3 day, 30 µM [5]: 11.6%
- viability at 3 day, 30 µM [6]: 13.2%
- viability at 3 day, 30 µM [7]: 14.9%
- viability at 3 day, 30 µM [8]: 6.61%
- viability at 6 day, 0.01 µM [9]: 102%
- viability at 6 day, 0.01 µM [10]: 107%
- viability at 6 day, 0.01 µM [11]: 100%
- viability at 6 day, 0.01 µM [12]: 99.6%
- viability at 6 day, 0.03 µM [9]: 106%
- viability at 6 day, 0.03 µM [10]: 111%
- viability at 6 day, 0.03 µM [11]: 101%
- viability at 6 day, 0.03 µM [12]: 106%
- viability at 6 day, 0.1 µM [9]: 106%
- viability at 6 day, 0.1 µM [10]: 107%
- viability at 6 day, 0.1 µM [11]: 106%
- viability at 6 day, 0.1 µM [12]: 106%
- viability at 6 day, 0.3 µM [9]: 109%
- viability at 6 day, 0.3 µM [10]: 113%
- viability at 6 day, 0.3 µM [11]: 106%
- viability at 6 day, 0.3 µM [12]: 108%
- viability at 6 day, 1 µM [9]: 103%
- viability at 6 day, 1 µM [10]: 102%
- viability at 6 day, 1 µM [11]: 101%
- viability at 6 day, 1 µM [12]: 107%
- viability at 6 day, 3 µM [9]: 63.9%
- viability at 6 day, 3 µM [10]: 63.2%
- viability at 6 day, 3 µM [11]: 58.6%
- viability at 6 day, 3 µM [12]: 69.8%
- viability at 6 day, 9.5 µM [9]: 24.9%
- viability at 6 day, 9.5 µM [10]: 23.5%
- viability at 6 day, 9.5 µM [11]: 25%
- viability at 6 day, 9.5 µM [12]: 26.3%
- viability at 6 day, 30 µM [9]: 4.91%
- viability at 6 day, 30 µM [10]: 5.1%
- viability at 6 day, 30 µM [11]: 5.11%
- viability at 6 day, 30 µM [12]: 4.53%
- viability at 3 day, 0.1 µM [13]: 110%
- viability at 3 day, 0.1 µM [14]: 122%
- viability at 3 day, 0.1 µM [15]: 110%
- viability at 3 day, 0.1 µM [16]: 97.6%
- viability at 3 day, 0.3 µM [13]: 106%
- viability at 3 day, 0.3 µM [14]: 109%
- viability at 3 day, 0.3 µM [15]: 108%
- viability at 3 day, 0.3 µM [16]: 101%
- viability at 3 day, 0.01 µM (MDA-MB-436 breast cancer cells, MDA MB436, 3 day, read-out: viability Average): 104%
- viability at 3 day, 0.01 µM (MDA-MB-436 breast cancer cells, MDA MB436, 3 day, read-out: viability Replicate 1): 123%
